1 compound from US8143217B2, “Use of DPP-IV inhibitor to reduce hypoglycemic events” (Novartis AG, priority 2005, dated 2012) can be followed below.

The data set relates to patients with type 2 diabetes treated with insulin. As to the kind of experiment: Clinical study: 24 weeks LAF237 50 mg bid vs placebo as add-on to insulin, hypoglycemic episodes. It counts as in vivo, human. The note with it: for Number of severe hypoglycemic episodes (Panel C): severe = requiring assistance of another party; for Number of severe hypoglycemic events compared with placebo group: P=0.032, chi-square test of two Poisson rates. As to the method: A multicenter, double-blind, randomized, parallel-group study to compare the effect of 24 weeks treatment with LAF237 50 mg bid to placebo as add-on therapy in patients with type 2 diabetes treated with insulin.
In addition to treatment with insulin, patients are assigned to double-blind treatment of LAF237 50 mg bid or placebo in a ratio of 1:1.
This is a multicenter, randomized, double-blind, placebo-controlled study. Patients with type 2 diabetes (HbA1c 7.5-11%) who have been treated for at least 3 months with insulin is eligible for participation in the trial. Eligible patients are randomized equally to LAF237 50 mg bid or placebo in addition to continuing their insulin therapy. The insulin dose can be adjusted downward as clinically indicated but upward adjustments should not exceed 25% of the baseline insulin dose.
Each patient attends one screening visit (Week-4) where the inclusion/exclusion criteria is assessed. Eligible patients are then be randomized at Visit 2 (Baseline, Day 1) and complete 5 further visits over a period of 24 weeks of treatment with LAF237 or placebo added to insulin.
Patients were instructed to perform self-monitored blood glucose measurements (SMBG) any time hypoglycemia was suspected and prior to breakfast at least 3 times per week. […] Severe hypoglycemia was defined as any episode requiring the assistance of another party (with low plasma glucose value<3.1 mmol/L unless the severity of the event precluded glucose determination).

[1] abbreviates: 24-week treatment, vildagliptin 50 mg bid added to insulin (n = 144).

Regarding `N#C[C@@H]1CCCN1C(=O)CNC12CC3CC(CC(O)(C3)C1)C2` [vildagliptin, (S)-1-[(3-hydroxy-1-adamantyl)amino]acetyl-2-cyano-pyrrolidine], the “Total number of hypoglycemic episodes reported (Panel B)” value under setting [1] is 113 episodes. Also, the “Number of patients reporting any hypoglycemic episode (Panel A)” value (24-week treatment, vildagliptin 50 mg bid added to insulin (n = 144), hypoglycemia = symptoms confirmed by SMBG<3.1 mmol/L) stood at 33 patients. Also, the “Number of severe hypoglycemic episodes (Panel C)” value was “none” under setting [1]; “did not show any severe hypoglycaemic episodes” (24-week treatment, vildagliptin 50 mg bid added to insulin (n = 144), listed as LAF237); 0 episodes (24-week treatment, vildagliptin 50 mg bid added to insulin (n = 144), listed as Vildagliptin + Insulin). Also, the “Effect against insulin-induced hypoglycemia” value (added to insulin in type 2 diabetes patients) is recorded as “protective effect”. Also, for the setting “vildagliptin 50 mg bid vs placebo, both added to insulin, 24 weeks, P<0.001, chi-square test of two Poisson rates”, the “Number of hypoglycemic events compared with placebo group” value is recorded as “statistically significantly lower”. Moreover, the “Number of severe hypoglycemic events compared with placebo group” value is recorded as “statistically significantly lower” (vildagliptin 50 mg bid vs placebo, both added to insulin, 24 weeks) and “fewer severe hypoglycaemic episodes” (vildagliptin 50 mg bid vs placebo, both added to insulin, 24 weeks, listed as LAF237).
